In brackets after ≈: the same amount, converted by molar mass. Where two headings read alike, the source gives them in different places.
Assays:
Format in all cases: cell-based, Staphylococcus aureus
MRSA and MSSA [1] = experiment: Antibacterial activity of gallic acid, various gallates and multivalent phenol derivatives alone (agar plate dilution method, MIC); settings: Staphylococcus aureus; for MIC: read-out: MIC alone
Method: (§1) According to the agar plate dilution method defined by Japan Society of Chemotherapy, MIC (Minimum inhibitory concentration) was determined. CAMHA was prepared by adding 50 mg/l of Ca-ion, 25 mg/l of Mg-ion, and 2% of NaCl to Mueller-Hinton II Agar (MHA), and it was used as a medium for use in the measurement of sensitivity. The bacterial liquid was incubated at 37° C. overnight and diluted to 10^6 CFU/ml with saline.
MIC for gallic acid, various gallates and multivalent phenol derivatives alone with MRSA and MSSA were determined as described in experiment 2.

[2] = test system: MRSA COL and MRSA Strain No. 5; experiment: Potentiating effect of various gallates for antibacterial activity of oxacillin (MIC by broth microdilution method and FIC); settings: for FIC value: combination with oxacillin
Method: According to the broth microdilution method defined by Japan Society of Chemotherapy, MIC was determined. CAMHA was prepared by adding 50 mg/l of Ca-ion, 25 mg/l of Mg-ion, and 2% of NaCl to MHB (Mueller-Hinton Broth), and it was used as a medium for use in the measurement of sensitivity. In 96-well microplates 100 μl of the medium for use in the measurement of sensitivity containing drugs was dispensed. The bacterial liquid was incubated at 37° C. overnight, diluted with saline and added to the plate so that the final concentration of the bacteria was 5×10^5 CFU/well. […] FIC (fractional inhibitory concentration) was calculated from the result and the potency of the effect of the combination use was evaluated.

MRSA and MSSA [3] = experiment: Enhancing activity for the antibacterial activity of oxacillin by various gallates (agar plate dilution method, oxacillin MIC); settings: Staphylococcus aureus, oxacillin alone
Method: as §1

MRSA = experiment: Potentiating effect of galloyl quinic acid derivatives for the antibacterial activity of oxacillin (agar plate dilution method, MIC); settings: Staphylococcus aureus, read-out: Oxacillin MIC
Outline: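 MIC by agar plate dilution (Japan Society of Chemotherapy) on Mueller-Hinton II agar with 50 mg/l Ca, 25 mg/l Mg and 2% NaCl, inoculum diluted to 10^6 CFU/ml; tara-derived galloyl quinic acids tested combined with oxacillin.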

`CCCCCCCCCOC(=O)c1cc(O)c(O)c(O)c1` [Nonyl gallate, n-nonyl gallate] was tested, and the MIC50 (MRSA and MSSA [1]) was 15.7 µg/mL (≈ 53 µM), the MIC (MRSA and MSSA [1]; ATCC 6538 / MRSA / MSSA) was 15.7 µg/mL (≈ 53 µM) and the MIC (MRSA and MSSA [1]; COL) was 15.7 µg/mL (≈ 53 µM). It also gave an MIC (MRSA and MSSA [1]; MRSA #1) of 15.7 µg/mL (≈ 53 µM), an MIC (MRSA and MSSA [1]; MRSA #2) of 15.7 µg/mL (≈ 53 µM) and an MIC (MRSA and MSSA [1]; MRSA #3) of 15.7 µg/mL (≈ 53 µM). For the same compound, the MIC (MRSA and MSSA [1]; MRSA #4) was 15.7 µg/mL (≈ 53 µM), the MIC (MRSA and MSSA [1]; MRSA #5) was 15.7 µg/mL (≈ 53 µM) and the MIC (MRSA and MSSA [1]; MRSA #6) was 15.7 µg/mL (≈ 53 µM). For the same compound, the MIC (MRSA and MSSA [1]; MRSA #7) was 15.7 µg/mL (≈ 53 µM), the MIC (MRSA and MSSA [1]; MRSA #8) was 15.7 µg/mL (≈ 53 µM) and the MIC (MRSA and MSSA [1]; MRSA #9) was 15.7 µg/mL (≈ 53 µM). For the same compound, the MIC (MRSA and MSSA [1]; MRSA #10) was 15.7 µg/mL (≈ 53 µM), the MIC (MRSA and MSSA [1]; MRSA #12) was 15.7 µg/mL (≈ 53 µM) and the MIC (MRSA and MSSA [1]; MRSA #16) was 15.7 µg/mL (≈ 53 µM). For the same compound, the MIC (MRSA and MSSA [1]; MRSA #17) was 15.7 µg/mL (≈ 53 µM), the MIC (MRSA and MSSA [1]; MRSA #18) was 15.7 µg/mL (≈ 53 µM) and the MIC (MRSA and MSSA [1]; MRSA #20) was 15.7 µg/mL (≈ 53 µM). For the same compound, the MIC (MRSA and MSSA [1]; MRSA #21) was 15.7 µg/mL (≈ 53 µM), the MIC (MRSA and MSSA [1]; MRSA #22) was 15.7 µg/mL (≈ 53 µM) and the MIC (MRSA and MSSA [1]; MRSA #24) was 15.7 µg/mL (≈ 53 µM). It also gave an MIC (MRSA and MSSA [1]; MRSA and MSSR) of 15.7 µg/mL (≈ 53 µM), an MIC (MRSA and MSSA [1]; MSSA #1003) of 15.7 µg/mL (≈ 53 µM) and an MIC (MRSA and MSSA [1]; MSSA #1010) of 15.7 µg/mL (≈ 53 µM). It also gave an MIC (MRSA and MSSA [1]; MSSA #1020) of 15.7 µg/mL (≈ 53 µM), an MIC (MRSA and MSSA [1]; MSSA #1023) of 15.7 µg/mL (≈ 53 µM) and an MIC (MRSA and MSSA [1]; MSSA #1029) of 15.7 µg/mL (≈ 53 µM). The MIC (MRSA and MSSA [1]; MSSA #1032) was 15.7 µg/mL (≈ 53 µM), the “antibacterial activity when used alone” value ([2]; COL Strain and Strain No. 5) was “most potent” and the FIC value ([2]; MRSA COL) was 0.625. It also gave an FIC value ([2]; MRSA Strain No. 5) of 0.502.

Work on `Cc1onc(-c2ccccc2)c1C(=O)N[C@@H]1C(=O)N2[C@@H]1SC(C)(C)[C@@H]2C(=O)O` [Oxacillin, oxacillin] yielded an MIC (MRSA and MSSA [3]; ATCC 6538 / MRSA / MSSA, ATCC 6538) of 0.063 µg/mL, an MIC (MRSA and MSSA [3]; MRSA 1) greater than 256 µg/mL and an MIC (MRSA and MSSA [3]; MRSA 2) of 256 µg/mL. The MIC (MRSA and MSSA [3]; MRSA 3) was 128 µg/mL, the MIC (MRSA and MSSA [3]; MRSA 4) was 256 µg/mL and the MIC (MRSA and MSSA [3]; MRSA 5) was 256 µg/mL. The MIC (MRSA and MSSA [3]; MRSA 6) was greater than 256 µg/mL, the MIC (MRSA and MSSA [3]; MRSA 7) was greater than 256 µg/mL and the MIC (MRSA and MSSA [3]; MRSA 8) was 128 µg/mL. The MIC (MRSA and MSSA [3]; MRSA 9) was 256 µg/mL, the MIC (MRSA and MSSA [3]; MRSA 10) was 128 µg/mL and the MIC (MRSA and MSSA [3]; MRSA 12) was greater than 256 µg/mL. For the same compound, the MIC (MRSA and MSSA [3]; MRSA 16) was 256 µg/mL, the MIC (MRSA and MSSA [3]; MRSA 17) was 256 µg/mL and the MIC (MRSA and MSSA [3]; MRSA 18) was greater than 256 µg/mL. For the same compound, the MIC (MRSA and MSSA [3]; MRSA 20) was 64 µg/mL, the MIC (MRSA and MSSA [3]; MRSA 21) was 64 µg/mL and the MIC (MRSA and MSSA [3]; MRSA 22) was 32 µg/mL. For the same compound, the MIC (MRSA and MSSA [3]; MRSA 24) was less than 0.5 µg/mL, the MIC (MRSA and MSSA [3]; MRSA COL) was 256 µg/mL and the MIC (MRSA and MSSA [3]; MSSA 1003) was 0.25 µg/mL. The MIC (MRSA and MSSA [3]; MSSA 1010) was 0.25 µg/mL, the MIC (MRSA and MSSA [3]; MSSA 1020) was 1 µg/mL and the MIC (MRSA and MSSA [3]; MSSA 1023) was 2 µg/mL. For the same compound, the MIC (MRSA and MSSA [3]; MSSA 1029) was 4 µg/mL, the MIC (MRSA and MSSA [3]; MSSA 1032) was 0.13 µg/mL and the MIC (MRSA; ATCC 6538 / MRSA, ATCC 6538, oxacillin alone (—)) was 0.063 µg/mL. It also gave an MIC (MRSA; MRSA / MSSA, MSSA 1003, oxacillin alone (—)) of 0.25 µg/mL, an MIC (MRSA; MRSA / MSSA, MSSA 1010, oxacillin alone (—)) of 0.25 µg/mL and an MIC (MRSA; MRSA / MSSA, MSSA 1032, oxacillin alone (—)) of 0.13 µg/mL. The MIC (MRSA; MRSA, MRSA 1, oxacillin alone (—)) was greater than 256 µg/mL, the MIC (MRSA; MRSA, MRSA 2, oxacillin alone (—)) was 256 µg/mL and the MIC (MRSA; MRSA, MRSA 3, oxacillin alone (—)) was 128 µg/mL. It also gave an MIC (MRSA; MRSA, MRSA 4, oxacillin alone (—)) of 256 µg/mL, an MIC (MRSA; MRSA, MRSA 5, oxacillin alone (—)) of 256 µg/mL and an MIC (MRSA; MRSA, MRSA 6, oxacillin alone (—)) greater than 256 µg/mL. The MIC (MRSA; MRSA, MRSA 7, oxacillin alone (—)) was greater than 256 µg/mL, the MIC (MRSA; MRSA, MRSA 8, oxacillin alone (—)) was 128 µg/mL and the MIC (MRSA; MRSA, MRSA 9, oxacillin alone (—)) was 256 µg/mL. The MIC (MRSA; MRSA, MRSA 10, oxacillin alone (—)) was 128 µg/mL, the MIC (MRSA; MRSA, MRSA 12, oxacillin alone (—)) was greater than 256 µg/mL and the MIC (MRSA; MRSA, MRSA 16, oxacillin alone (—)) was 256 µg/mL. For the same compound, the MIC (MRSA; MRSA, MRSA 17, oxacillin alone (—)) was 256 µg/mL, the MIC (MRSA; MRSA, MRSA 18, oxacillin alone (—)) was greater than 256 µg/mL and the MIC (MRSA; MRSA, MRSA 20, oxacillin alone (—)) was 64 µg/mL. For the same compound, the MIC (MRSA; MRSA, MRSA 21, oxacillin alone (—)) was 64 µg/mL, the MIC (MRSA; MRSA, MRSA 22, oxacillin alone (—)) was 32 µg/mL and the MIC (MRSA; MRSA, MRSA COL, oxacillin alone (—)) was 256 µg/mL. The MIC (MRSA; MRSA) was 0.13 µg/mL.
